Reference: PubChem BioAssay AID248 (DTP/NCI, 2004)
Several values for one entry are separate records, joined by “and”; a condition that tells them apart may be missing. Identical values can stand only once. Inconclusive results and toxic doses are left out.

System: L1210 leukemia ip in BDF1 mice, survival T/C
Assay: NCI In Vivo Anticancer Drug Screen. Data for tumor model L1210 Leukemia (intraperitoneal) in B6D2F1 (BDF1) mice
Conditions: endpoint: mean survival time, higher = longer survival
Summary of the method: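 Tumor was transplanted into mice, which were then dosed with test compound or vehicle alone. Survival was recorded for each group, and the treated figure was expressed relative to the control figure.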

[1] = dose: 100.0 mg/kg/injection, schedule: Q04DX003 (ip), vehicle: Klucel (hydroxypropylcellulose) (HPC)
[2] = dose: 200.0 mg/kg/injection, schedule: Q04DX003 (ip), vehicle: Klucel (hydroxypropylcellulose) (HPC)
[3] = dose: 400.0 mg/kg/injection, schedule: Q04DX003 (ip), vehicle: Klucel (hydroxypropylcellulose) (HPC)
[4] = dose: 50.0 mg/kg/injection, schedule: Q01DX001 (ip), vehicle: saline
[5] = dose: 100.0 mg/kg/injection, schedule: Q01DX001 (ip), vehicle: saline
[6] = dose: 200.0 mg/kg/injection, schedule: Q01DX001 (ip), vehicle: saline
[7] = dose: 400.0 mg/kg/injection, schedule: Q01DX001 (ip), vehicle: saline

O=C1c2ccccc2C(=O)N1c1ccc(CBr)cc1
T/C (dose: 100.0 mg/kg/injection, schedule: Q01DX001 (ip), vehicle: Klucel (hydroxypropylcellulose) (HPC)): 98 % of control | T/C (dose: 100.0 mg/kg/injection, schedule: Q01DX009 (ip), vehicle: Klucel (hydroxypropylcellulose) (HPC)): 92 % of control and 94 % of control | T/C (dose: 100.0 mg/kg/injection, schedule: Q04DX002 (ip), vehicle: Klucel (hydroxypropylcellulose) (HPC)): 106 % of control and 89 % of control | T/C [1]: 98 % of control | T/C (dose: 200.0 mg/kg/injection, schedule: Q01DX001 (ip), vehicle: Klucel (hydroxypropylcellulose) (HPC)): 94 % of control | T/C (dose: 200.0 mg/kg/injection, schedule: Q01DX009 (ip), vehicle: Klucel (hydroxypropylcellulose) (HPC)): 89 % of control | T/C (dose: 200.0 mg/kg/injection, schedule: Q04DX002 (ip), vehicle: Klucel (hydroxypropylcellulose) (HPC)): 97 % of control and 102 % of control | T/C [2]: 90 % of control | T/C (dose: 400.0 mg/kg/injection, schedule: Q01DX001 (ip), vehicle: Klucel (hydroxypropylcellulose) (HPC)): 89 % of control | T/C (dose: 400.0 mg/kg/injection, schedule: Q04DX002 (ip), vehicle: Klucel (hydroxypropylcellulose) (HPC)): 92 % of control and 115 % of control | T/C [3]: 102 % of control

C[N+]1(C)C2CCCC1CCC2
T/C (dose: 3.12 mg/kg/injection, schedule: Q04DX002 (ip), vehicle: Klucel (hydroxypropylcellulose) (HPC)): 93 % of control | T/C (dose: 6.25 mg/kg/injection, schedule: Q04DX002 (ip), vehicle: Klucel (hydroxypropylcellulose) (HPC)): 104 % of control | T/C (dose: 12.5 mg/kg/injection, schedule: Q04DX002 (ip), vehicle: Klucel (hydroxypropylcellulose) (HPC)): 90 % of control

CC(=O)OCC1OC(n2c(Br)nc3c(N)ncnc32)C(OC(C)=O)C1OC(C)=O (centres undefined)
T/C [4]: 98 % of control | T/C (dose: 100.0 mg/kg/injection, schedule: Q01DX001 (ip), vehicle: carboxymethylcellulose (CMC)): 98 % of control | T/C [5]: 95 % of control | T/C (dose: 100.0 mg/kg/injection, schedule: Q01DX005 (ip), vehicle: saline): 89 % of control | T/C (dose: 200.0 mg/kg/injection, schedule: Q01DX001 (ip), vehicle: carboxymethylcellulose (CMC)): 95 % of control | T/C [6]: 104 % of control | T/C (dose: 200.0 mg/kg/injection, schedule: Q01DX005 (ip), vehicle: saline): 93 % of control | T/C (dose: 400.0 mg/kg/injection, schedule: Q01DX001 (ip), vehicle: carboxymethylcellulose (CMC)): 101 % of control

O=[N+]([O-])c1ccc(N=NNc2ccc(N=Nc3ccccc3)cc2)cc1
T/C (dose: 25.0 mg/kg/injection, schedule: Q01DX009 (ip), vehicle: Klucel (hydroxypropylcellulose) (HPC)): 91 % of control | T/C (dose: 25.0 mg/kg/injection, schedule: Q04DX003 (ip), vehicle: other): 89 % of control | T/C (dose: 50.0 mg/kg/injection, schedule: Q01DX009 (ip), vehicle: Klucel (hydroxypropylcellulose) (HPC)): 102 % of control | T/C (dose: 50.0 mg/kg/injection, schedule: Q04DX003 (ip), vehicle: other): 95 % of control | T/C (dose: 100.0 mg/kg/injection, schedule: Q04DX003 (ip), vehicle: other): 92 % of control

O=CN/N=C/c1cc(Cl)cc(Cl)c1O
T/C [1]: 100 % of control | T/C [2]: 92 % of control | T/C [3]: 94 % of control

CC(C)C1CCC(NC(=O)N(CCF)N=O)CC1 (centres undefined)
T/C (dose: 9.5 mg/kg/injection, schedule: Q01DX001 (ip), vehicle: other): 108 % of control | T/C (dose: 23.0 mg/kg/injection, schedule: Q01DX001 (ip), vehicle: other): 165 % of control | T/C (dose: 30.0 mg/kg/injection, schedule: Q01DX001 (ip), vehicle: other): 187 % of control | T/C (dose: 38.0 mg/kg/injection, schedule: Q01DX001 (ip), vehicle: other): 209 % of control | T/C (dose: 46.0 mg/kg/injection, schedule: Q01DX001 (ip), vehicle: other): 212 % of control | T/C (dose: 62.0 mg/kg/injection, schedule: Q01DX001 (ip), vehicle: other): 312 % of control

CC(=O)C1CCCC1=O (centres undefined)
T/C (dose: 100.0 mg/kg/injection, schedule: Q01DX001 (ip), vehicle: acetone): 103 % of control | T/C (dose: 100.0 mg/kg/injection, schedule: Q04DX003 (ip), vehicle: acetone): 97 % of control | T/C (dose: 200.0 mg/kg/injection, schedule: Q01DX001 (ip), vehicle: acetone): 97 % of control | T/C (dose: 200.0 mg/kg/injection, schedule: Q04DX003 (ip), vehicle: acetone): 97 % of control | T/C (dose: 400.0 mg/kg/injection, schedule: Q01DX001 (ip), vehicle: acetone): 95 % of control | T/C (dose: 400.0 mg/kg/injection, schedule: Q04DX003 (ip), vehicle: acetone): 95 % of control

O=P(NC1CCCCC1)(OCc1ccccc1)N(CCCl)CCCl (centres undefined)
T/C (dose: 10.0 mg/kg/injection, schedule: Q01DX Z (ip), vehicle: water): 98 % of control | T/C (dose: 20.0 mg/kg/injection, schedule: Q01DX Z (ip), vehicle: water): 91 % of control | T/C (dose: 40.0 mg/kg/injection, schedule: Q01DX Z (ip), vehicle: water): 96 % of control | T/C (dose: 80.0 mg/kg/injection, schedule: Q01DX009 (ip), vehicle: water): 93 % of control | T/C (dose: 160.0 mg/kg/injection, schedule: Q01DX009 (ip), vehicle: water): 89 % of control

ClCc1ccc(CCl)cc1
T/C (dose: 56.25 mg/kg/injection, schedule: Q01DX009 (ip), vehicle: Klucel (hydroxypropylcellulose) (HPC)): 101 % of control | T/C (dose: 112.5 mg/kg/injection, schedule: Q01DX009 (ip), vehicle: Klucel (hydroxypropylcellulose) (HPC)): 98 % of control | T/C (dose: 150.0 mg/kg/injection, schedule: Q04DX003 (ip), vehicle: Klucel (hydroxypropylcellulose) (HPC)): 105 % of control | T/C (dose: 225.0 mg/kg/injection, schedule: Q01DX009 (ip), vehicle: Klucel (hydroxypropylcellulose) (HPC)): 87 % of control | T/C (dose: 225.0 mg/kg/injection, schedule: Q04DX003 (ip), vehicle: Klucel (hydroxypropylcellulose) (HPC)): 97 % of control

COc1ccccc1CCCO
T/C [4]: 97 % of control | T/C [5]: 105 % of control | T/C [6]: 100 % of control | T/C [7]: 105 % of control

O=C(OCC#CCOC(=O)C(Cl)Cl)C(Cl)Cl
T/C (dose: 100.0 mg/kg/injection, schedule: Q01DX009 (ip), vehicle: saline): 107 % of control | T/C (dose: 200.0 mg/kg/injection, schedule: Q01DX009 (ip), vehicle: saline): 91 % of control | T/C (dose: 400.0 mg/kg/injection, schedule: Q01DX009 (ip), vehicle: saline): 94 % of control

Cc1cc2c(c3[nH]c4ccccc4c13)C(=O)c1ccccc1C2=O
T/C [5]: 102 % of control | T/C [6]: 95 % of control | T/C [7]: 102 % of control

S=C(Nc1ccc(Cl)c(Cl)c1)SCc1ccco1
T/C (dose: 30.0 mg/kg/injection, schedule: Q04DX003 (ip), vehicle: saline with Tween-80): 101 % of control | T/C (dose: 60.0 mg/kg/injection, schedule: Q04DX003 (ip), vehicle: saline with Tween-80): 101 % of control | T/C (dose: 120.0 mg/kg/injection, schedule: Q04DX003 (ip), vehicle: saline with Tween-80): 101 % of control

Cc1ccc(S(=O)(=O)C2=CC(=O)c3ccccc3C2=O)cc1
T/C (dose: 75.0 mg/kg/injection, schedule: Q01DX001 (ip), vehicle: other): 88 % of control

Clc1cccc(N=C(Oc2cccc(Cl)c2)c2ccccc2)c1
T/C (dose: 25.6 mg/kg/injection, schedule: Q04DX002 (ip), vehicle: saline with Tween-80): 176 % of control | T/C (dose: 64.0 mg/kg/injection, schedule: Q04DX002 (ip), vehicle: saline with Tween-80): 101 % of control | T/C (dose: 160.0 mg/kg/injection, schedule: Q04DX002 (ip), vehicle: saline with Tween-80): 97 % of control | T/C (dose: 400.0 mg/kg/injection, schedule: Q04DX002 (ip), vehicle: saline with Tween-80): 93 % of control

C/C(=C\c1ccc([N+](=O)[O-])cc1)C(=O)Nc1ccc(S(=O)(=O)F)cc1
T/C (dose: 100.0 mg/kg/injection, schedule: Q01DX009 (ip), vehicle: saline with Tween-80): 95 % of control | T/C (dose: 200.0 mg/kg/injection, schedule: Q01DX009 (ip), vehicle: saline with Tween-80): 93 % of control | T/C (dose: 400.0 mg/kg/injection, schedule: Q01DX009 (ip), vehicle: saline with Tween-80): 98 % of control

OCCOC(O)C(Cl)(Cl)Cl (centres undefined)
T/C (dose: 100.0 mg/kg/injection, schedule: Q04DX002 (ip), vehicle: saline): 100 % of control | T/C (dose: 200.0 mg/kg/injection, schedule: Q04DX002 (ip), vehicle: saline): 92 % of control | T/C (dose: 400.0 mg/kg/injection, schedule: Q04DX002 (ip), vehicle: saline): 95 % of control

CC1(C)CSCC(C)(C)C(=O)C1=O
T/C (dose: 50.0 mg/kg/injection, schedule: Q04DX002 (ip), vehicle: saline with Tween-80): 100 % of control | T/C (dose: 100.0 mg/kg/injection, schedule: Q04DX002 (ip), vehicle: saline with Tween-80): 109 % of control | T/C (dose: 200.0 mg/kg/injection, schedule: Q04DX002 (ip), vehicle: saline with Tween-80): 103 % of control
